Source: patent US7153866B1 (The United States of America as represented by the …, priority 1997, dated 2006)

Legend:
C3H female mice = assay: Lifetime incidence of cancer in normal C3H female mice given Tempol in drinking water; format: in vivo; conditions: FIG. 2
Text: Female C3H mice were supplied through the Frederick Cancer Research Center-Animal Production, Frederick, Md. […] All groups were allowed food and water ad libitum. All groups were followed for their entire life span. Animals were sacrificed at the first sign of a visible tumor nodule, gross enlargement of spleen, or marked difficulty in breathing. The presence of tumor was confirmed histologically.

neoplastic cell lines = conditions: in vitro; Monti et al., PAACR 1995 and 1997; cited from earlier work

## CC1(C)CC(O)CC(C)(C)N1[O] [Tempol, 4-hydroxy-2,2,6,6-tetramethylpiperidine-1-oxyl]
C3H female mice; Tempol 58 mM in drinking water for entire life span
  incidence of cancer (total number of tumors/group) compared to controls: four-fold reduction
C3H female mice; Tempol 58 mM in drinking water for one year
  incidence of cancer (total number of tumors/group) compared to both control groups: dramatically reduced the incidence of cancer
Neoplastic cell lines
  cytotoxicity against neoplastic cell lines: cytotoxic
